Measured values as given in patent US20090274739A1, “METHODS AND COMPOSITIONS FOR TREATING NEOINTIMAL HYPERPLASIA” (THE TRUSTEES OF COLUMBIA UNIVERSITY IN THE CITY OF NEW YORK, priority 2006, published 2009).
Where “and” joins values, the source holds several entries; their conditions need not be identical. Equal entries are not always repeated. Entries after “also recorded” stand apart in the source; their conditions may differ.

How the values were obtained:
[1] = tested on: primary murine aortic vascular smooth muscle cells (VSMC); assay: VSMC proliferation assay (Coulter counter / MTS-based); format: cell-based, mouse
Description: The methods used in the above experiments were as follows: Cell Culture and VSMC Proliferation Assays. Primary VSMC were isolated from aortic explants of wildtype, ob/ob, or db/db mice in the method of Roque et al. 30. VSMC were routinely cultured in Dulbecco's Modified Eagle's Medium (DMEM) containing either 4500 or 1250 mg/L glucose supplemented with 20% FBS at 37° C. in a 5% CO2 incubator. […] Cells were plated at 200,000 cells/ well of a 6 well dish and subsequently serum starved for 72 hr in DMEM media supplemented with 0.1 % FBS. Leptin dissolved in PBS was added directly to serum-free media at concentrations of 1, 10, or 100 ng/ml with […] LY294002 or U0126, and cells were grown for another 72 hr before harvesting. VSMC proliferation was measured by counting samples using a Coulter counter or using the Cell Titre 96 Aqueous One Solution Cell Proliferation Assay kit (Promega). Cell viability was assessed by Trypan Blue staining.
Proliferation of VSMCs: VSMC proliferation was measured by counting triplicate samples using a Coulter counter or using the CellTitier 96 Aqueous One Solution Cell Proliferation Assay (Promega, Madison, Wis.) kit per manufacturer's instructions. Cell viability was assessed via staining with Trypan Blue.
Murine VSMCs (2×10^4 cells/well) were incubated in a 6-well tissue culture plate for 72 hours in DMEM containing 0.1% FBS with or without insulin (10 or 100 nmol/L) and with 0, 1, 10, or 100 nmol/L rapamycin. Triplicate samples were counted using a Coulter counter and were normalized as percentage of the control group. Cell viability was checked via Trypan blue staining.
Murine VSMCs, seeded 2×10^4 cells/well in a 6-well plate, were starved for 72 hrs in DMEM with 0.1% FBS. Rapamycin, leptin, or insulin in different concentrations indicated in the figure were incubated with VSMCs in DMEM with 0.1% of FBS for 72 hrs. Triplicate samples were counted via a Coulter counter. Cell viability was checked via Trypan blue staining. […] In panel C, VSMCs were exposed to U0126, a specific MEK1/2 inhibitor, or LY294002, a specific PI3K inhibitor.
Primary VSMC were isolated from aortic explants of WT, ob/ob, or db/db mice (46). VSMC proliferation was determined using the Cell Titre Aqueous One Solution Proliferation Assay (Promega, Madison, Wis.). Migration to PDGF-BB was assessed in a modified Boyden chamber assay (47).

[2] = tested on: MAPK (p44/p42, ERK1/2) phosphorylation; assay: Immunoblot of MAPK (ERK1/2, p44/p42) phosphorylation in VSMC; format: cell-based, mouse
Description: (§1) Western blot analysis: The cells were plated in a 100-mm culture dish in DMEM supplemented with 20% FBS for 24 h at 37° C., followed by serum starvation for 48 h. Cells were then treated with different reagents for 30 min. Cells were subsequently lysed on ice for 30 min in RIPA buffer [150 mM NaCl, 100 mM Tris (pH 8.0), 1% Triton X-100, 1% deoxycholic acid, 0.1% SDS, 5 mM EDTA, and 10 mM NaF] supplemented with 1 mM sodium vanadate, 2 mM leupeptin, 2 mM aprotinin, 1 mM phenylmethylsulfonyl fluoride (PMSF), 1 mM DTT, and 2 mM pepstatin A. After centrifugation at 14,000 rpm for 30 min, the supernatant was harvested as the total cellular protein extract, and stored at −70° C. The protein concentration was determined using Bio-Rad protein assay reagent (Richmond, Calif.). The total cellular protein extracts were separated by SDS-polyacrylamide gel electrophoresis (SDS-PAGE) and transferred to nitrocellulose membrane in 20 mM Tris-HCl (pH 8.0) containing 150 mM glycine and 20% (v/v) methanol.
(§2) Membranes were blocked with 5% nonfat dried milk in PBS containing 0.05% Tween 20 and incubated with antibodies against phospho-(Thr^202/Tyr^204) p42/p44^MAPK and p42/p44^MAPK, phospho-Akt([…]) and anti-Akt, p70^S6K, 4EBP-1. Blots were washed three times in PBS buffer, followed by incubation with the appropriate HRP-linked IgG. The specific proteins in the blots were visualized using an enhanced chemiluminescence reagent (NEN, Boston, Mass.).
(§3) VSMC were plated on 100-mm dishes, serum starved for 72 h in DMEM containing 0.1% FBS, and stimulated with 0.6 or 6 nM (10 or 100 ng/ml) leptin. Extracts were prepared by brief sonication in HKM buffer [40 mM HEPES-KOH (pH 7.6), 7.5 mM MgCl2, 0.5 mM DTT] or, in the case of Akt phosphorylation studies, by lysing cells on ice for 30 min in RIPA buffer. 70 μg of protein per sample were subjected to immunoblotting by standards protocols. Imaging and densitometry were performed on an Odyssey infrared system (Li-Cor, Lincoln, Neb.).

[3] = tested on: Akt phosphorylation; assay: Immunoblot of Akt phosphorylation in VSMC; format: cell-based, mouse; details: Example 2; rapamycin; leptin 100 ng/ml
Description: as §1, §2, §3

[4] = tested on: murine femoral artery wire injury model (neointimal hyperplasia); assay: Femoral artery wire injury model, morphometry of neointimal formation; format: in vivo, mouse; design: Lumen / Media / Intima / TVA (total vessel area): unit not given here; details: for decrease of neointimal formation compared to vehicle: absence of leptin; for I/M (intima:media ratio) / Intima / Lumen / Media / TVA (total vessel area): mean ± SD
Text: Animal Models and Drug Treatments. Wild type C57BL/6J background mice and mice deficient for leptin (C57BL/6J-Lepob; ob/ob) or the leptin receptor (C57BL/6J-m+/+Lepdb; db/db) were purchased from Charles Jackson Laboratories, Maine. Mice were obtained at ages 6-8 weeks old and average weight 15 g. Animals were fed standard rodent chow and tap water ad libitum. Procedures and animal care were approved by the Institutional Animal Care and Use Committee. Mice were subjected to femoral artery wire injury or sham injury described below 24 hr prior to starting pharmacological treatments. Sirolimus was administered by intraperitoneal injection once per day for 14 days as a suspension in 0.2% sodium carboxymethyl cellulose and 0.25% polysorbate-80; duplicate experiments were accomplished with 0.5% DMSO. Leptin or LY294002 was administered by intraperitoneal injection once per day for 14 days as a suspension in PBS. Plasma leptin levels were measured at baseline, 3, 6, and 10 hr after leptin injection using an ELISA assay (R&D). Leptin plus the vehicle used for both sirolimus and LY294002 was used as the control group for the treatment groups with sirolimus and LY294002. After the 2-week treatment, animals were processed for femoral artery morphometry.
Femoral Artery Injury Model. Endoluminal injury of bilateral femoral arteries was performed according to the method of Roque et al. with minor modification 27. […] Briefly, to denude and dilate femoral arteries, a 0.014″ angioplasty guidewire (Guidant) was passed endoluminally 3 times to the level of the aortic bifurcation. A sham protocol was performed where the arteries underwent dissection, clamping, and ligature without passage of the guidewire.
Computer-aided quantitative morphometry to measure luminal, medial, intimal, and vessel areas were performed as previously described 27 with minor modification. Mice were euthanized via CO2 asphyxiation prior to en bloc excision of hind limbs. Briefly, multiple segments of the common femoral artery at the level of injury were fixed in 10% Zinc Formalin, embedded in paraffin, sectioned at […] thickness, and subjected to Elastic-Van Gieson staining at a Columbia University Core Histology facility. In many cases, arteries underwent immunohistochemical staining for smooth muscle a-actin to highlight the media and neointima. Photomicrographs were captured on Adobe Photoshop 7.0 and transferred to Scion Image software for quantitative analysis. Specimens were analyzed by two independent operators blinded to the treatment groups. Microsoft Excel software was used to calculate the RNI values from I/M ratios in the absence and presence of pharmacological inhibitors, as detailed in the text.
Surgical Procedures: The mouse femoral artery wire injury model of was used with minor modifications (Roque M, et al., Arterioscler Thromb Vasc Biol, 2000, 20(2):335-42). Briefly, forty-two male mice were studied. Endoluminal injury to the common femoral artery was produced by either 3 passages of a 0.014″ diameter angioplasty guidewire (Guidant, Santa Clara, Calif.). […] While being viewed under a surgical microscope, a groin incision was made and the femoral artery was isolated and temporarily clamped distal to the inguinal ligament. An arteriotomy was performed and the guidewire was passed 3 times to the level of the aortic bifurcation. The artery was then ligated proximal to the arteriotomy. A sham protocol was carried out on the contralateral side where the arteries underwent dissection, temporary clamping, and ligature, without passage of the wire. The formation of the neointima was confirmed in this model as being comprised mainly of VSMCs through immunohistochemical staining of representative sections for α-smooth muscle actin via a commercial kit (Sigma).
For all treatment protocols, rapamycin was administered by intraperitoneal injection once per day, for 14 days, as a suspension in 0.2% sodium carboxymethyl cellulose and 0.25% polysorbate-80. […]

[5] = tested on: wire-injured femoral artery of hyperglycemic (STZ) mice; assay: Femoral artery wire injury in streptozotocin-induced hyperglycemic mice; format: in vivo, mouse
Description: For the studies carried out in hyperglycemic mice, animals received an intraperitoneal injection of 60 mg/kg/d for 5 days of streptozotocin (STZ) in 0.05 mol/L citrate buffer. Surgery was performed 3 days following the final injection. Blood glucose levels were measured prior to injury (representing baseline levels), at time of injury, at euthanasia, and as needed during insulin administration with the OneTouch SureStep® Blood glucose monitoring system (Lifescan, Inc., Milipitas, Calif.). Only animals with blood glucose concentrations >300 mg/dL were included in this study.
Insulin (12-26 U/kg) was administered via an intraperitoneal route twice per day, for 14 days, according to blood glucose measurements.
Morphometry: Mice were euthanized via CO2 asphyxiation and were perfused with 10% Zinc Formalin through the left ventricle at physiological pressure (100 mm Hg). Tissues were excised and fixed overnight in 10% Zinc Formalin, embedded in paraffin, and sectioned at 5 μm thickness. Multiple level sections were cut at 100 pm intervals. For morphometry, tissues were stained with elastic van Gieson stain. Using computer aided morphometry (Scion Image), luminal, medial, intimal, and vessel area, and the lengths of the internal and external elastic laminae were measured as previously described (Roque M, et al., Arterioscler Thromb Vasc Biol, 2000, 20(2):335-42) in a blinded manner. […]

[6] = wire injury + leptin 0.4 mg/kg, SRL 1 mg/kg/d i.p. 14 days
[7] = wire injury + leptin 0.4 mg/kg, SRL 4 mg/kg/d i.p. 14 days
[8] = wire injury + leptin 0.4 mg/kg, SRL 9 mg/kg/d i.p. 14 days
[9] = wire injury, SRL 1 mg/kg/d i.p. 14 days, no leptin
[10] = wire injury, SRL 4 mg/kg/d i.p. 14 days, no leptin
[11] = wire injury, SRL 9 mg/kg/d i.p. 14 days, no leptin

`N#CC(=C(/N)Sc1ccccc1N)/C(C#N)=C(\N)Sc1ccccc1N` [U0126] was tested, and the “VSMC proliferation induced by leptin and insulin” value [1] was “weak inhibition; also recorded: not inhibited”, the “effect on leptin-induced VSMC proliferation” value [1] was “did not significantly alter” and the “effect on leptin-induced proliferation of murine VSMC” value [1] was “did not significantly alter”. The “leptin-stimulated phosphorylation of MAPK” value ([2]; Example 1, data not shown) was “prevented” and the “leptin-stimulated phosphorylation of MAPK” value ([2]; Example 5, U0126 10 μM) was “prevented”.

In the case of `CO[C@H]1C[C@@H]2CC[C@@H](C)[C@@](O)(O2)C(=O)C(=O)N2CCCC[C@H]2C(=O)O[C@H]([C@H](C)C[C@@H]2CC[C@@H](O)[C@H](OC)C2)CC(=O)[C@H](C)/C=C(\C)[C@@H](O)[C@@H](OC)C(=O)[C@H](C)C[C@H](C)/C=C/C=C/C=C/1C` [sirolimus, rapamycin], the “inhibition of leptin-stimulated phosphorylation of ERK1/2” value ([2]; Example 2, rapamycin, leptin 100 ng/ml) is reported as “did not inhibit”, the “inhibition of leptin-stimulated phosphorylation of Akt” value [3] is reported as “did not inhibit” and the “decrease of neointimal formation compared to vehicle” value (shortened to “decrease of neointimal formation”) ([4]; sirolimus 1 mg/kg/d) is reported as ~2 fold. For the same compound, the “relative neointimal inhibition (RNI)” value ([4]; sirolimus 1 mg/kg/d, in the presence of leptin 0.4 mg/kg) was 0.35, the “relative neointimal inhibition (RNI)” value ([4]; sirolimus 1 mg/kg/d, without leptin, RNI 1 = total inhibition) was 0.51 and the “decrease of neointimal formation” value ([4]; sirolimus 4 mg/kg/d) was ~5 fold. The “relative neointimal inhibition (RNI)” value ([4]; sirolimus 4 mg/kg/d, in the presence of leptin 0.4 mg/kg) was 0.67, the “relative neointimal inhibition (RNI)” value ([4]; sirolimus 4 mg/kg/d, without leptin) was 0.81 and the “decrease of neointimal formation” value ([4]; sirolimus 9 mg/kg/d) was ~5 fold and ~6 fold. The “relative neointimal inhibition (RNI)” value ([4]; sirolimus 9 mg/kg/d, in the presence of leptin 0.4 mg/kg) was 0.97, the “relative neointimal inhibition (RNI)” value ([4]; sirolimus 9 mg/kg/d, without leptin) was 0.85 and the “I/M (intima:media ratio)” value [4, 6] was 1.269 ± 0.254. The Intima [4, 6] was 0.024 ± 0.005, the Lumen [4, 6] was 0.010 ± 0.002 and the Media [4, 6] was 0.019 ± 0.001. The “TVA (total vessel area)” value [4, 6] was 0.056 ± 0.007, the “I/M (intima:media ratio)” value [4, 7] was 0.654 ± 0.172 and the Intima [4, 7] was 0.009 ± 0.001. For the same compound, the Lumen [4, 7] was 0.012 ± 0.004, the Media [4, 7] was 0.015 ± 0.002 and the “TVA (total vessel area)” value [4, 7] was 0.035 ± 0.006. For the same compound, the “I/M (intima:media ratio)” value [4, 8] was 0.061 ± 0.015, the Intima [4, 8] was 0.001 ± 0.000 and the Lumen [4, 8] was 0.014 ± 0.002. The Media [4, 8] was 0.017 ± 0.003, the “TVA (total vessel area)” value [4, 8] was 0.031 ± 0.004 and the “I/M (intima:media ratio)” value [4, 9] was 0.334 ± 0.043. The Intima [4, 9] was 0.005 ± 0.001, the Lumen [4, 9] was 0.012 ± .003 and the Media [4, 9] was 0.014 ± 0.001. The “TVA (total vessel area)” value [4, 9] was 0.029 ± 0.003, the “I/M (intima:media ratio)” value [4, 10] was 0.121 ± 0.027 and the Intima [4, 10] was 0.001 ± 0.000. For the same compound, the Lumen [4, 10] was 0.012 ± 0.005, the Media [4, 10] was 0.015 ± 0.003 and the “TVA (total vessel area)” value [4, 10] was 0.028 ± 0.006. The “I/M (intima:media ratio)” value [4, 11] was 0.094 ± 0.037, the Intima [4, 11] was 0.001 ± 0.000 and the Lumen [4, 11] was 0.015 ± 0.002. The Media [4, 11] was 0.015 ± 0.002 and the “TVA (total vessel area)” value [4, 11] was 0.030 ± 0.004.

In the case of “Insulin: insulin purchased from Calbiochem”, the blood glucose levels ([5]; STZ mice, insulin 12-26 U/kg twice per day) is reported as “reduce blood glucose levels to normal levels”, the “intima:media ratio” value ([5]; STZ+INS, insulin 12-26 U/kg i.p. twice per day 14 days, p<0.01) is reported as “significant increase” and the VSMC proliferation ([1]; insulin 10 or 100 nmol/L, 72 hours) is reported as “induced a dose dependent increase in cell proliferation”.
